# Test results as given in publication PMC8951750, “In Vitro Anticancer and Cancer-Preventive Activity of New Triterpene Glycosides from the Far Eastern Starfish Solaster pacificus” (Marine Drugs, 2022).
# Where “and” joins values, the source holds several entries; their conditions need not be identical. Identical values can stand only once. Like-named read-outs stand apart in the source and are kept apart here.
# Legend:
# melanoma RPMI-7951 cells = settings: non-toxic concentration of 0.5 μM; cited from earlier work
# [1] = test system: colorectal carcinoma HT-29 cells; settings: non-toxic concentration of 0.5 μM; cited from earlier work
# [2] = test system: breast cancer MDA-MB-231 cells; settings: non-toxic concentration of 0.5 μM; cited from earlier work
# [3] = test system: human melanoma cells SK-MEL-28; assay: Cell viability, MTS assay, SK-MEL-28; assay type: cell-based; settings: for SI (selectivity index) SK-MEL-28: IC50 JB6 Cl41 / IC50 SK-MEL-28; for IC50: read-out: IC50, cell viability SK-MEL-28, MTS assay, 24 h
# Experimental: (§1) MTS assay was used to measure the cell viability of tested normal and cancer cells. Cells were seeded into 96-well plates (“Jet Biofil”, Guangzhou, China) at density of 1.0 × 10^4/200 µL for 24 h at 37 °C in a 5% CO2 incubator. Then, cell monolayer was treated either with DMSO (control) or various concentrations of the triterpene glycosides 1–9 from S. pacificus (0.1, 0.5, 2.5, 12.5, 62.5 µM) in fresh appropriate culture medium for 24 h. Subsequently, the cells were incubated with 15 µL of 3-(4,5-dimethylthiazol-2-yl)-5-(3-carboxymethoxyphenyl)-2-(4-sulfophenyl)-2H-tetrazolium (MTS reagent) (“Promega”, Madison, WI, USA) for 3 h, and the absorbance of each well was measured at 490/630 nm using Power Wave XS microplate reader (“BioTek”, Wynusky, VT, USA). The concentration at which the compounds exert half of their maximal inhibitory effect on cell viability (IC50) was calculated by the AAT-Bioquest® online calculator [39]. The selectivity index (SI) was calculated as described previously using the following formula SI = IC50 of the compounds in normal cell (JB6 Cl41)/IC50 of the same compounds in human melanoma cell lines (SK-MEL-2, SK-MEL-28, or RPMI-7951).
# [4] = test system: human melanoma cells SK-MEL-2; assay: Cell viability, MTS assay, SK-MEL-2; assay type: cell-based; settings: for SI (selectivity index) SK-MEL-2: IC50 JB6 Cl41 / IC50 SK-MEL-2; for IC50: read-out: IC50, cell viability SK-MEL-2, MTS assay, 24 h
# Experimental: as §1
# JB6 Cl41 cells [5] = assay: Soft agar assay, UVB-induced neoplastic cell transformation; assay type: cell-based, mouse; settings: compound 0.1 µM, UVB 0.3 J/cm^2 three times a week for 3 weeks, soft agar
# Experimental: (§2) JB6 Cl41 cells (2.4 × 10^4) were exposed to epidermal growth factor (EGF) (1 ng/mL) or phorbol 12-myristate 13-acetate (TPA) (10 ng/mL) and treated either with DMSO (control) or the triterpene glycosides 1–9 from S. pacificus (0.1, 0.5, and 1 µM) in 1 mL of 0.3% basal medium Eagle (BME) agar containing 10% FBS, 2 mM L-glutamine, and 25 µg/mL gentamicin (agar mix). The cultures were maintained in a humidified atmosphere with 5% CO2 at 37 °C for 14 days, and the cell’s colonies were scored using a microscope, Motic AE 20 (XiangAn, Xiamen, China), and the ImageJ software bundled with 64-bit Java 1.8.0_112 (NIH, Bethesda, MD, USA). To determine the effect of investigated compounds on neoplastic cell transformation induced by ionizing radiation (X-ray or UVB), JB6 Cl41 cells (3 × 10^5/dish) were seeded in 60 mm dishes and cultured for 24 h at 37 °C in 5% CO2 incubator. Then, the cells were exposed to X-rays (X-ray system XPERT 80 (KUB Technologies, Inc, Milford, CT, USA)) at dose of 0.5 Gy or UVB (wavelengths below 312 nm) (Bio-Link UV irradiation system, Vilber, France) at dose of 0.3 J/cm^2 three times a week for 3 weeks. Irradiated JB6 Cl41 cells (2.4 × 10^4) were treated either with DMSO (control) or the triterpene glycosides 1–9 from S. pacificus (0.1, 0.5, and 1 µM) in 1 mL of agar mix. The cultures were maintained in a humidified atmosphere with 5% CO2 at 37 °C for 14 days, and the cell’s colonies were scored using a microscope, Motic AE 20 (XiangAn, Xiamen 361101, China), and the ImageJ software bundled with 64-bit Java 1.8.0_112 (NIH, Bethesda, MD, USA).
# [6] = test system: Human erythrocytes (O(I)+); assay: Hemolysis assay; assay type: cell-based; settings: 1 h, 37 °C, PBS pH 7.4
# Experimental: Human erythrocytes (O(I)+) were obtained from Vladivostok blood transfusion station. Erythrocytes were centrifuged with PBS (pH 7.4) for 5 min at 4 °C by 450× g on a LABOFUGE 400R (Heraeus, Hanau, Germany) centrifuge three times. Then, the residue of erythrocytes was resuspended in ice-cold PBS (pH 7.4) to a final optical density of 2.0 at 700 nm and kept on ice. For the hemolytic assay, 180 µL of erythrocyte suspension was mixed with 20 µL of Cucumarioside A2-2 (positive control) and investigated compounds at concentrations range of 0.1, 0.5, 1, 5, 10 µM in V-bottom 96-well plates. After 1 h of incubation at 37 °C, plates were centrifuged at 900× g for 10 min on an LMC-3000 (Biosan, Riga, Latvia) laboratory centrifuge. Then, we carefully selected 100 µL of supernatant and transferred it to new flat plates, respectively. Lysis of erythrocytes was determined by measuring the concentration of hemoglobin in the supernatant with a microplate photometer Multiskan FC (Thermo Fisher Scientific, Waltham, MA, USA) at 570 nm. The effective dose causing 50% of erythrocytes hemolysis (ED50) was calculated using the computer program SigmaPlot 10.0. All experiments were made in triplicate, p < 0.01.
# JB6 Cl41 cells [7] = assay: Soft agar assay, X-ray-induced neoplastic cell transformation; assay type: cell-based, mouse; settings: compound 0.1 µM, X-rays 0.5 Gy three times a week for 3 weeks, soft agar
# Experimental: as §2
# SK-MEL-2 cells = assay: Soft agar assay, colony formation of cancer cells; assay type: cell-based, human; settings: compound 0.1 µM, 14 days
# Experimental: SK-MEL-2 cells (2.4 × 10^4) were treated either with DMSO (control) or the triterpene glycosides 1–9 from S. pacificus (0.1 µM) in 1 mL of agar mix. After 14 days, colonies of cancer cells were scored as described above.
# [8] = test system: non-cancerous mouse epidermal cells JB6 Cl41; assay: Cell viability, MTS assay, JB6 Cl41; assay type: cell-based
# Experimental: as §1
# JB6 Cl41 cells [9] = assay: Soft agar assay, TPA-induced neoplastic cell transformation; assay type: cell-based, mouse; settings: compound 0.1 µM, TPA 10 ng/mL, soft agar, 2 weeks, vs positive control
# Experimental: as §2
# [10] = test system: human melanoma cells RPMI-7951; assay: Cell viability, MTS assay, RPMI-7951; assay type: cell-based; settings: for SI (selectivity index) RPMI-7951: IC50 JB6 Cl41 / IC50 RPMI-7951; for IC50: read-out: IC50, cell viability RPMI-7951, MTS assay, 24 h
# Experimental: as §1
# JB6 Cl41 cells [11] = assay: Soft agar assay, EGF-induced neoplastic cell transformation; assay type: cell-based, mouse; settings: compound 0.1 µM, EGF 1 ng/mL, soft agar, 2 weeks, vs positive control
# Experimental: as §2
Molecule,suppression of colony formation of RPMI-7951 cells (melanoma RPMI-7951 cells),suppression of colony formation of HT-29 cells [1],suppression of colony formation of MDA-MB-231 cells [2],SI (selectivity index) SK-MEL-28 [3],SI (selectivity index) SK-MEL-2 [4],"ED50, effective dose causing 50% of erythrocytes hemolysis [6]",decrease of colonies number of SK-MEL-2 cells (colony formation) (SK-MEL-2 cells),SI (selectivity index) RPMI-7951 [10],other results
pacificusoside C,almost completely suppressed,almost completely suppressed,almost completely suppressed,,,,,,
CO[C@@H]1[C@@H](O)[C@H](O[C@@H]2[C@@H](O)[C@H](O[C@H]3[C@H](O)[C@@H](O[C@@H]4OC[C@@H](O)[C@H](O)[C@H]4O)[C@H](O[C@H]4[C@H](O[C@H]5CC[C@]6(C)[C@@H]7CCC89C(=O)O[C@@](C)(/C=C\C=C(C)C)[C@H]8[C@@H](OC(C)=O)C[C@@]9(C)C7=CC[C@H]6C5(C)C)OC[C@@H](O)[C@@H]4O)O[C@@H]3C)O[C@H](CO)[C@H]2O)OC[C@H]1O (some centres unmarked) [cucumarioside C1],almost completely suppressed,almost completely suppressed,almost completely suppressed,,,,,,
"COC1C(O)COC(OC2C(O)C(COS(=O)(=O)O)OC(OC3C(C)OC(OC4C(OC5CCC6(C)C7CCC89C(=O)OC(C)(C=CC=C(C)C)C8C(OC(C)=O)CC9(C)C7=CCC6C5(C)C)OCC(O)C4O)C(O)C3O)C2O)C1O [Compound 6, 3β-O-{3-O-methyl-β-D-xylopyranosyl-(1→3)-6-O-6-sulfoxy-β-D-glucopyranosyl-(1→4)-β-D-quinovopyranosyl-(1→2)-β-D-xylopyranosyl}-16β-acetoxyholosta-7,22Z,24-triene]",,,,0.8,9.5,1.68 µM and 1.68 ± 0.14 µM,40%,0.2,"IC50 [3]: 8.2 ± 0.2 µM; IC50 [4]: 0.69 ± 0.03 µM; inhibition of UVB-induced neoplastic cell transformation (decrease of colonies number) (JB6 Cl41 cells [5]; 0.1 µM): 10%; inhibition of X-ray-induced cell transformation (JB6 Cl41 colonies formation) (JB6 Cl41 cells [7]; 0.1 µM): 23%; IC50 ([8]; read-out: IC50, cell viability JB6 Cl41; MTS assay, 24 h, normal cells): 6.6 ± 0.3 µM; inhibition of TPA-induced neoplastic transformation of JB6 Cl41 cells (JB6 Cl41 cells [9]; 0.1 µM): 61%; IC50 [10]: 32.4 ± 0.5 µM; inhibition of EGF-induced neoplastic transformation of JB6 Cl41 cells (JB6 Cl41 cells [11]; 0.1 µM): 44%"
"CC(=O)OC1CC2(C)C3=CCC4C(C)(C)C(OC5OCC(O)C(O)C5OC5OC(C)C(OC6OC(CO)C(O)C(O)C6O)C(O)C5OC5OCC(O)C(O)C5O)CCC4(C)C3CCC23C(=O)OC(C)(C=CC=C(C)C)C13 [Compound 2, 3β-O-{β-D-glucopyranosyl-(1→4)-[β-D-xylopyranosyl-(1→2)]-β-D-quinovopyranosyl-(1→2)-β-D-xylopyranosyl}-16β-acetoxyholosta-7,22E,24-triene]",,,,1.0,0.8,4.08 ± 0.36 µM,3%,0.87,"IC50 ([3]; Homo sapiens, SK-MEL-28, 24 h): 29 ± 0.02 µM; IC50 ([4]; Homo sapiens, SK-MEL-2, 24 h): 37.6 ± 0.2 µM; inhibition of UVB-induced neoplastic cell transformation (decrease of colonies number) (JB6 Cl41 cells [5]): not effective; inhibition at 0.1 µM (JB6 Cl41 cells [7]; Mus musculus, JB6 Cl41, 504 h, read-out: inhibition of X-ray-induced cell transformation (JB6 Cl41 colonies formation)): < 15%; IC50 ([8]; MTS assay, 24 h, normal cells; read-out: IC50, cell viability JB6 Cl41): 31.5 ± 4.1 µM; inhibition at 0.1 µM (JB6 Cl41 cells [9]; Mus musculus, JB6 Cl41, 336 h, read-out: inhibition of TPA-induced neoplastic transformation of JB6 Cl41 cells): 18%; IC50 ([10]; Homo sapiens, RPMI-7951, 24 h): 36.4 ± 0.2 µM; inhibition at 0.1 µM (JB6 Cl41 cells [11]; Mus musculus, JB6 Cl41, 336 h, read-out: inhibition of EGF-induced neoplastic transformation of JB6 Cl41 cells): 25%"
COC1C(O)COC(OC2C(O)C(CO)OC(OC3C(C)OC(OC4C(OC5CCC6(C)C7CCC89C(=O)OC(C)(/C=C/C=C(C)C)C8C(OC(C)=O)CC9(C)C7=CCC6C5(C)C)OCC(O)C4O)C(OC4OCC(O)C(O)C4O)C3O)C2O)C1O (centres unmarked) [cucumarioside C2],almost completely suppressed,almost completely suppressed,almost completely suppressed,,,,,,
